The values that follow come from ChEMBL document CHEMBL1148445, “Synthesis of 2',5'-dideoxy-2-fluoroadenosine and 2',5'-dideoxy-2,5'-difluoroadenosine: potent P-site inhibitors of adenylyl cyclase” (J Med Chem, 2004).

SMILES strings stand for the structures.

Usually IC50 stands for the concentration that gives 50% inhibition. High values mean weaker potency in that assay, low ones greater potency in that assay.

The target in this experiment is Adenylate cyclase type 5 (Rattus norvegicus, UniProt Q04400). In words: Compound was evaluated for inhibition of adenylate cyclase from rat brain. Format: tissue-based.
Adenylate cyclase type 5, sequence (Q04400 whole entry): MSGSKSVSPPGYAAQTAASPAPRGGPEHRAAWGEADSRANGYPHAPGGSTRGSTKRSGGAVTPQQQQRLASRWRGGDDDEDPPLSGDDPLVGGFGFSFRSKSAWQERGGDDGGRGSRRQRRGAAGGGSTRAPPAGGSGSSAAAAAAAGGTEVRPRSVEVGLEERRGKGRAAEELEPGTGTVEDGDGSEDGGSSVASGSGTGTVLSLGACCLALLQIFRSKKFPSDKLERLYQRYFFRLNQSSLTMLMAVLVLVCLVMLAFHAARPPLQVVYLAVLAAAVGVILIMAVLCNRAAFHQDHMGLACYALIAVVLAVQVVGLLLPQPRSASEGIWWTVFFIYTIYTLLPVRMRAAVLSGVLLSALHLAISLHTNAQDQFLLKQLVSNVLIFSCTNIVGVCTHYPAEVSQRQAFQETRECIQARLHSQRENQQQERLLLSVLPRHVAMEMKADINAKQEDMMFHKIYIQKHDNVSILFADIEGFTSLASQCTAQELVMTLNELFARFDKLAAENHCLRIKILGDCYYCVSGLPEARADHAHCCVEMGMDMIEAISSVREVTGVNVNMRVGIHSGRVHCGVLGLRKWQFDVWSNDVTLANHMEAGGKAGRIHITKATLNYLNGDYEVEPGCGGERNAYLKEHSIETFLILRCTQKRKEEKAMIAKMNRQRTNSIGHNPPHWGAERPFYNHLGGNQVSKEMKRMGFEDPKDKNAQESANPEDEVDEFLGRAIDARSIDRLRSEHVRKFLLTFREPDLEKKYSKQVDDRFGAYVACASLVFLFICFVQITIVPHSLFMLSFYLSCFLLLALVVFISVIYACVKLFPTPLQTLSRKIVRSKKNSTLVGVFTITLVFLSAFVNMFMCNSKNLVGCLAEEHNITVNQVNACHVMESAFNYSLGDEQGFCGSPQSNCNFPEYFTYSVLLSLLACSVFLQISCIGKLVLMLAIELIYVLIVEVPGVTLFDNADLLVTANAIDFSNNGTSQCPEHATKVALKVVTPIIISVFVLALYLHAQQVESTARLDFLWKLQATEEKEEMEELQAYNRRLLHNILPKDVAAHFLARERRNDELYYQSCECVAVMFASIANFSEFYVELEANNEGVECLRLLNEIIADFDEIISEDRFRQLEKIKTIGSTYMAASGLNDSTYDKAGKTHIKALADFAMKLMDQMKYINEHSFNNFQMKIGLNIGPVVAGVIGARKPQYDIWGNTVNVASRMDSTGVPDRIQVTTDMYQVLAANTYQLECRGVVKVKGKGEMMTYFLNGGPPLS
`C[C@@H]1O[C@H](n2cnc3c(N)ncnc32)C[C@H]1O` gave an IC50 of 2.8 µM.

`Nc1nc(F)nc2c1ncn2[C@H]1C[C@H](O)[C@@H](CO)O1` (stereo in doubt; form 1): the IC50 was 4.6 µM.

For `C[C@H]1O[C@@H](n2cnc3c(N)nc(F)nc32)C[C@@H]1O` (stereo in doubt; form 1), the IC50 was greater than 100 µM.

Compound `Nc1nc(F)nc2c1ncn2[C@H]1C[C@H](O)[C@@H](CF)O1` (stereo in doubt; form 1) yielded an IC50 of 29 µM.

`Nc1nc(F)nc2c1ncn2[C@H]1C[C@H](O)[C@@H](CO)O1` (stereo in doubt; form 2) came in with an IC50 greater than 100 µM.

`C[C@H]1O[C@@H](n2cnc3c(N)nc(F)nc32)C[C@@H]1O` (stereo in doubt; form 2) displayed an IC50 of 0.89 µM.

With `Nc1nc(F)nc2c1ncn2[C@H]1C[C@H](O)[C@@H](CF)O1` (stereo in doubt; form 2), the IC50 is 0.98 µM.

Take `Nc1ncnc2c1ncn2[C@@H]1O[C@H](CO)[C@@H](O)[C@H]1O` [ADENOSINE]: the IC50 was greater than 300 µM.

For the compound `Nc1ncnc2c1ncn2[C@H]1C[C@H](O)[C@@H](CO)O1` [DEOXYADENOSINE], half-maximal inhibition (IC50) required 15 µM.

`Nc1ncnc2c1ncn2[C@@H]1O[C@H](CO)[C@@H](O)[C@@H]1O` [VIDARABINE] gave an IC50 of 82 µM. This IC50 lies about 5.5-fold higher than the previous one.
